These results are taken from US10077243B2, “Compounds for treating disorders mediated by metabotropic glutamate receptor 5, and methods of use thereof” (Sunovion Pharmaceuticals Inc., priority 2009, dated 2018).

Broadly, the EC50 is the midpoint of the concentration-response curve.

Molecules are shown by their SMILES.

The target of one test is T1, human mGluR5 (Homo sapiens, UniProt P41594).
T1 construct: expressed in transfected cells; host or cells: HEK293 cells stably expressing rat GLAST (EAAT1), stably transfected with pcDNAzeo3.1 carrying synthetic human mGluR5 DNA; zeocin-selected single clones
T1 sequence (P41594 21-1212): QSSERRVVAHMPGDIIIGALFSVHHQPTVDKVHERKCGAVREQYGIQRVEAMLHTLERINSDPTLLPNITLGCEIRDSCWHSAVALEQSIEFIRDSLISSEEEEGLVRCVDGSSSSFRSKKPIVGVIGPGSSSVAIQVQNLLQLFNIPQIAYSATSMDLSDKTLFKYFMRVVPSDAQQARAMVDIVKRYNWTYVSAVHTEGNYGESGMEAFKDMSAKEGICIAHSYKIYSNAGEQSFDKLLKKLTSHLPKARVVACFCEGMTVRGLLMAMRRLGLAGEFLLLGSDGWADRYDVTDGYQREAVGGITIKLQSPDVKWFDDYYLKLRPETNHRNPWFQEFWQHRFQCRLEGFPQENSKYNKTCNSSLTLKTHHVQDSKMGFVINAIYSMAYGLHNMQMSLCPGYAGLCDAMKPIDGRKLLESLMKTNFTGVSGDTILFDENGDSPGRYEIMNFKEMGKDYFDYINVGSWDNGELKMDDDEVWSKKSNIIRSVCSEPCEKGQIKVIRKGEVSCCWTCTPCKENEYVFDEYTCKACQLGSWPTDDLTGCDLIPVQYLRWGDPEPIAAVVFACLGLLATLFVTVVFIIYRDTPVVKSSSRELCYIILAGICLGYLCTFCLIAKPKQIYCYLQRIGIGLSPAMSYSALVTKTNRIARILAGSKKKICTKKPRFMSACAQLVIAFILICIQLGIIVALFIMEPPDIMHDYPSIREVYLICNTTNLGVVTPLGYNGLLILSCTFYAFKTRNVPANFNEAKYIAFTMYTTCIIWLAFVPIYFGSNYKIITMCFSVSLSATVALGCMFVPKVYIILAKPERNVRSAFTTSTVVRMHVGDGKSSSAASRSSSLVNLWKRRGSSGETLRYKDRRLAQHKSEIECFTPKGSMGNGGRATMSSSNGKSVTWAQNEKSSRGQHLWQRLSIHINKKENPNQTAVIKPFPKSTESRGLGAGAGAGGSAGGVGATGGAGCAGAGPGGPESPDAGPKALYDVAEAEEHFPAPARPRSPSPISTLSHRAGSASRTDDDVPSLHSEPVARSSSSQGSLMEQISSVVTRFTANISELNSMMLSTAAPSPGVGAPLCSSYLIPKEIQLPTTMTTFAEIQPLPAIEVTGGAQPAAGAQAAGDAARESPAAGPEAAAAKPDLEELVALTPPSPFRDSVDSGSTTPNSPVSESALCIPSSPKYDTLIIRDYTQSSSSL
As to the kind of experiment: In vitro cell-based FLIPR calcium assay for positive modulation of the activation of mGluR5 by glutamate (PAM EC50). The note with it: HEK293/GLAST cells expressing recombinant human mGluR5; FLIPR calcium signal; glutamate added at its EC20; read-out: mGluR5 PAM EC50. The gist of the method: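 HEK293/GLAST cells stably expressing mGluR5 were loaded with calcium-sensitive dye (25 °C, 45–60 min) in HBSS/20 mM HEPES. Test compounds were assayed in buffer containing glutamate at that day's EC20, with FLIPR fluorescence recorded. Controls contained 0.3% DMSO without compound.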
For `CC(O)c1cnc2cc(C#Cc3cccc(F)c3)ccn2c1=O` (stereo not drawn) [Example 13.1, 8-((3-fluorophenyl)ethynyl)-3-(1-hydroxyethyl)-4H-pyrido[1,2-a]pyrimidin-4-one], the half-maximal effective concentration (EC50) was 100 to 300 nM. As for `CCOC(C)c1cnc2cc(C#Cc3cccc(F)c3)ccn2c1=O` (stereo not drawn) [Example 13.2, 3-(1-ethoxyethyl)-8-((3-fluorophenyl)ethynyl)-4H-pyrido[1,2-a]pyrimidin-4-one], the EC50 is less than 10 nM. Same read-out and setting: with `CCNC(=O)c1cnc2cc(C#Cc3cccc(F)c3)ccn2c1=O` [Example 13.5, N-ethyl-8-((3-fluorophenyl)ethynyl)-4-oxo-4H-pyrido[1,2-a]pyrimidine-3-carboxamide] the figure was 10 to 30 nM; with `O=c1c(CO)cnc2cc(C#Cc3cccc(F)c3)ccn12` [Example 13.6, 8-((3-fluorophenyl)ethynyl)-3-(hydroxymethyl)-4H-pyrido[1,2-a]pyrimidin-4-one], 300 to 1000 nM.

Turning to `COCc1cnc2cc(C#Cc3cccc(F)c3)ccn2c1=O` [Example 13.7, 8-((3-fluorophenyl)ethynyl)-3-(methoxymethyl)-4H-pyrido[1,2-a]pyrimidin-4-one], the EC50 lay in the range of 30 to 100 nM. Still for that read-out and setting: under `CCOCc1cnc2cc(C#Cc3cccc(F)c3)ccn2c1=O` [Example 13.8, 3-(ethoxymethyl)-8-((3-fluorophenyl)ethynyl)-4H-pyrido[1,2-a]pyrimidin-4-one] stands 30 to 100 nM; under `COCCc1cnc2cc(C#Cc3cccc(F)c3)ccn2c1=O` [Example 13.10, 8-((3-fluorophenyl)ethynyl)-3-(2-methoxyethyl)-4H-pyrido[1,2-a]pyrimidin-4-one], 10 to 30 nM; under `COCCc1cnc2cc(C#Cc3ccc(F)cc3)ccn2c1=O` [Example 13.11, 8-((4-fluorophenyl)ethynyl)-3-(2-methoxyethyl)-4H-pyrido[1,2-a]pyrimidin-4-one], 10 to 30 nM. Same read-out and setting: under `CCOCCc1cnc2cc(C#Cc3cccc(F)c3)ccn2c1=O` [Example 13.13, 3-(2-ethoxyethyl)-8-((3-fluorophenyl)ethynyl)-4H-pyrido[1,2-a]pyrimidin-4-one] stands 30 to 100 nM; under `CC(C)(O)c1cnc2cc(C#Cc3cccc(F)c3)ccn2c1=O` [Example 13.18, 8-((3-fluorophenyl)ethynyl)-3-(2-hydroxypropan-2-yl)-4H-pyrido[1,2-a]pyrimidin-4-one], 100 to 300 nM; under `O=c1c2c(nc3cc(C#Cc4ccccn4)ccn13)CCCC2` [Example 15.1, 7-(pyridin-2-ylethynyl)-3,4-dihydro-1H-pyrido[2,1-b]quinazolin-11(2H)-one], 30 to 100 nM.

As to `CC1CCc2c(nc3cc(C#Cc4ccccn4)ccn3c2=O)C1` (stereo not drawn) [Example 15.2, 3-methyl-7-(pyridin-2-ylethynyl)-3,4-dihydro-1H-pyrido[2,1-b]quinazolin-11(2H)-one], the EC50 is less than 10 nM. Still for that read-out and setting: with `CC1(C)CCc2c(nc3cc(C#Cc4ccccn4)ccn3c2=O)C1` [Example 15.3, 3,3-dimethyl-7-(pyridin-2-ylethynyl)-3,4-dihydro-1H-pyrido[2,1-b]quinazolin-11(2H)-one] the figure was less than 10 nM.

Consider `N#CCN1CCc2nc3cc(C#Cc4ccccn4)ccn3c(=O)c2C1` [Example 15.6, 2-(11-oxo-7-(pyridin-2-ylethynyl)-3,4-dihydro-1H-dipyrido[1,2-a:4′,3′-d]pyrimidin-2(11H)-yl)acetonitrile], for which the concentration giving a half-maximal response (EC50) was 300 to 1000 nM.

For the compound `O=c1c2c(nc3cc(C#Cc4ccccn4)ccn13)C[C@@H]1CCCN1C2` [Example 15.7, (S)-10-(pyridin-2-ylethynyl)-2,3,13,13a-tetrahydro-1H-pyrido[1′,2′:1,2]pyrimido[5,4-f]indolizin-6(5H)-one], the EC50 is 300 to 1000 nM. Regarding `O=c1c2c(nc3cc(C#Cc4ccc(F)cc4)ccn13)CCCCC2` [Example 16.1, 3-((4-fluorophenyl)ethynyl)-7,8,9,10-tetrahydrocyclohepta[d]pyrido[1,2-a]pyrimidin-11(6H)-one], the EC50 was less than 10 nM. Same read-out and setting: under `O=c1c2c(nc3cc(C#Cc4ccccc4)ccn13)CCCCC2` [Example 16.2, 3-(phenylethynyl)-7,8,9,10-tetrahydrocyclohepta[d]pyrido[1,2-a]pyrimidin-11(6H)-one] stands less than 10 nM. Regarding `O=c1c2c(nc3cc(C#Cc4ccccn4)ccn13)CCCCC2` [Example 16.3, 3-(pyridin-2-ylethynyl)-7,8,9,10-tetrahydrocyclohepta[d]pyrido[1,2-a]pyrimidin-11(6H)-one], the EC50 is less than 10 nM. On the same count and under the same terms, with `O=c1c2c(nc3cc(C#Cc4cccnc4)ccn13)CCCCC2` [Example 16.4, 3-(pyridin-3-ylethynyl)-7,8,9,10-tetrahydrocyclohepta[d]pyrido[1,2-a]pyrimidin-11(6H)-one] the figure was less than 10 nM. On the same count and under the same terms, with `O=c1c2c(nc3cc(C#Cc4ccncc4)ccn13)CCCCC2` [Example 16.5, 3-(pyridin-4-ylethynyl)-7,8,9,10-tetrahydrocyclohepta[d]pyrido[1,2-a]pyrimidin-11(6H)-one] the figure was less than 10 nM; with `CC1CCc2nc3cc(C#Cc4ccccn4)ccn3c(=O)c2CC1` (stereo not drawn) [Example 16.6, 8-methyl-3-(pyridin-2-ylethynyl)-7,8,9,10-tetrahydrocyclohepta[d]pyrido[1,2-a]pyrimidin-11(6H)-one], less than 10 nM. Take `CN1CCc2nc3cc(C#Cc4ccc(F)cc4)ccn3c(=O)c2CC1` [Example 16.7, 8-((4-fluorophenyl)ethynyl)-3-methyl-2,3,4,5-tetrahydropyrido[1′,2′:1,2]pyrimido[4,5-d]azepin-12(1H)-one]: the EC50 is 300 to 1000 nM.

Turning to `O=c1c2c(nc3cc(C#Cc4ccccc4)ccn13)CCCCCC2` [Example 17.1, 3-(phenylethynyl)-8,9,10,11-tetrahydro-6H-cycloocta[d]pyrido[1,2-a]pyrimidin-12(7H)-one], the 50% effective concentration (EC50) is less than 10 nM. Same read-out and setting: under `O=c1c2c(nc3cc(C#Cc4ccccn4)ccn13)CCCCCC2` [Example 17.2, 3-(pyridin-2-ylethynyl)-8,9,10,11-tetrahydro-6H-cycloocta[d]pyrido[1,2-a]pyrimidin-12(7H)-one] stands less than 10 nM. In the case of `O=c1c2c(nc3cc(C#Cc4cccnc4)ccn13)CCCCCC2` [Example 17.3, 3-(pyridin-3-ylethynyl)-8,9,10,11-tetrahydro-6H-cycloocta[d]pyrido[1,2-a]pyrimidin-12(7H)-one], the concentration giving a half-maximal response (EC50) is less than 10 nM. As to `O=c1c2c(nc3cc(C#Cc4ccncc4)ccn13)CCCCCC2` [Example 17.4, 3-(pyridin-4-ylethynyl)-8,9,10,11-tetrahydro-6H-cycloocta[d]pyrido[1,2-a]pyrimidin-12(7H)-one], the EC50 was less than 10 nM. Same read-out and setting: under `O=c1c2c(nc3cc(C#Cc4ccc(F)cc4)ccn13)CCCCCC2` [Example 17.5, 3-((4-fluorophenyl)ethynyl)-8,9,10,11-tetrahydro-6H-cycloocta[d]pyrido[1,2-a]pyrimidin-12(7H)-one] stands less than 10 nM.

As to `O=c1[nH]ccc2cc(C#Cc3cccc(F)c3)ccc12` [Example 18.1, 6-((3-fluorophenyl)ethynyl)isoquinolin-1(2H)-one], the EC50 was in the range of 300 to 1000 nM. Still for that read-out and setting: with `CCCn1ccc2cc(C#Cc3ccc(F)cc3)ccc2c1=O` [Example 18.2, 6-((4-fluorophenyl)ethynyl)-2-propylisoquinolin-1 (2H)-one] the figure was 300 to 1000 nM; with `Fc1ccc(C#Cc2ccc3c(c2)N=C2CCCCCN2C3)cc1` [Example 19.1, 3-((4-fluorophenyl)ethynyl)-6,7,8,9,10,12-hexahydroazepino[2,1-b]quinazoline], 30 to 100 nM; with `O=c1c2ccc(/C=C/c3ccccc3)cc2nc2n1CCCCC2` [Example 20.2, (E)-3-styryl-7,8,9,10-tetrahydroazepino[2,1-b]quinazolin-12(6H)-one], less than 10 nM.

With `CC1CCc2nc3cc(/C=C/c4ccccn4)ccc3c(=O)n2CC1` (stereo not drawn) [Example 20.3, (E)-8-methyl-3-(2-(pyridin-2-yl)vinyl)-7,8,9,10-tetrahydroazepino[2,1-b]quinazolin-12(6H)-one], the EC50 fell in the range of 100 to 300 nM. Same read-out and setting: under `CC1Cc2nc3cc(/C=C/c4ccccc4)ccc3c(=O)n2C1` (stereo not drawn) [Example 20.4, (E)-2-methyl-6-styryl-2,3-dihydropyrrolo[2,1-b]quinazolin-9(1H)-one] stands 30 to 100 nM; under `CC1(C)CCn2c(nc3cc(/C=C/c4ccccc4F)ccc3c2=O)C1` [Example 20.6, (E)-3-(2-fluorostyryl)-7,7-dimethyl-8,9-dihydro-6H-pyrido[2,1-b]quinazolin-11(7H)-one], 30 to 100 nM; under `CC1(C)CCn2c(nc3cc(/C=C/c4ccccn4)ccc3c2=O)C1` [Example 20.7], 10 to 30 nM. Still for that read-out and setting: under `CC1(C)CCn2c(nc3cc(/C=C/c4cccc(C#N)n4)ccc3c2=O)C1` [Example 20.9, (E)-6-(2-(7,7-dimethyl-11-oxo-7,8,9,11-tetrahydro-6H-pyrido[2,1-b]quinazolin-3-yl)vinyl)picolinonitrile] stands 100 to 300 nM; under `O=c1c2ccc(/C=C/c3ccccn3)cc2nc2n1CCCCC2` [Example 20.10, (E)-3-(2-(pyridin-2-yl)vinyl)-7,8,9,10-tetrahydroazepino[2,1-b]quinazolin-12(6H)-one], 30 to 100 nM. Still for that read-out and setting: with `CC1(C)CCc2nc3cc(/C=C/c4ccccc4F)ccc3c(=O)n2C1` [Example 20.12, (E)-3-(2-fluorostyryl)-8,8-dimethyl-8,9-dihydro-6H-pyrido[2,1-b]quinazolin-11(7H)-one] the figure was 30 to 100 nM.

Staying with this test, now noted: mGluR5 PAM EC50, HEK293/GLAST cells expressing recombinant human mGluR5; FLIPR calcium signal; glutamate added at its EC20.
With `CC1(C)CCc2nc3cc(C#Cc4ccccn4)ccn3c(=O)c2C1` [Example 15.4, 2,2-dimethyl-7-(pyridin-2-ylethynyl)-3,4-dihydro-1H-Pyrido[2,1-b]quinazolin-11(2H)-one], the EC50 was less than 10 nM.
